Here are results for two substances from patent US20110008302A1, “Compositions and methods for immortalizing cells and screening for anti-cancer agents” (priority 2007, published 2011).

For test [1], the system named is MEFs. Briefly: Stimulation of serum-starved MEFs with growth factors or serum (Ezh2, Ndy1, miR-101 levels). The test is classed as cell-based, mouse. On the procedure:
MEFs were transfected with control siRNA and stimulated with serum (10%) for 1, 4, 12 and 18 hours. (upper) Nuclear extracts were probed with antibody specific for Ezh2 and for CREB, levels of which served as loading control. (lower) Ndy1 and Ezh2 mRNA levels were measured with real time RT-PCR; GAPDH mRNA levels were used as internal control. Data are expressed as mean±SD.
Serum starved MEFs were stimulated with each of FGF-2 (20 ng/ml), IGF-1 (20 ng/ml), PDGF (20 ng/ml), serum (10%), VEGF (20 ng/ml), EGF (20 ng/ml) or TNFα (50 ng/ml). Nuclear extracts were probed with antibody specific for Ezh2 and for CREB, levels of which served as loading control.
Data are expressed as mean±SD.
MEFs transfected with control siRNA were stimulated with FGF-2 for 1, 4, 12 or 18 hours. (upper) Nuclear extracts were probed with antibody specific for Ezh2. CREB levels served as loading control. (middle) Ndy1 and Ezh2 mRNA were measured with real time RT-PCR; GAPDH mRNA levels were used as internal control. Data are expressed as mean±SD. (lower) miR-101 levels were measured with real time RT-PCR; U6 small nuclear RNA levels were used as internal control. Data are expressed as mean±SD.
For stimulation with FGF-2 (Cell signalling, catalog number 8910), IGF-1 (R&D Systems, catalog number 791-MG), PDGF (Cell signalling, catalog number 9909), VEGF (R&D systems, catalog number 493-MV), EGF (R&D systems, catalog number 236-EG), TNFα (Cell Signalling, catalog number 2169), cells were serum starved for 16 hours and growth factors were added at a final concentration of 20 ng/ml each, for 24 hours.
To identify a pathway regulating Ezh2 expression via the Ndy1/miR-101 axis, serum-starved MEFs were stimulated with FGF-2, IGF-1, PDGF, EGF, VEGF, TNFα or serum and were examined for expression of Ezh2, Ndy1 and miR-101 before and 24 hours after stimulation. […] This was confirmed with analyses in which FGF-2 was used to stimulate serum-starved MEFs transfected with a control siRNA or siRNA for Ndy1 (FIG. 36).

In test [2] the test system is MEFs. The test can be described thus: FGF-2-induced proliferation and migration of MEFs (MTT, transwell filter, wound healing). The test is classed as cell-based, mouse. The source says: FGF-2 stimulation induces both proliferation and migration in various cell types. To determine the role of Ndy1 in FGF-2-driven proliferation and migration, FGF-2 was used to stimulate serum-starved MEFs which were transfected with control RNA, siRNA for Ndy1, miR-101 or with siRNA for Ndy1+miR-101.
To determine cell number, the 3-[4,5-dimethylthiazol-2-yl]-2,5-[…] bromide (MTT, Invitrogen, catalog number M6494) assay was used as described in Polytarchou, C et al., 2005 J. Biol. Chem. 280: 40428-35. Cells were seeded at 2×10^4 cells/well in 24-well tissue culture plates. Twenty-four hours later, cells were serum-starved in medium without FBS for 16 h. Culture medium was replaced with fresh medium containing FGF-2 or control carrier, and the number of cells was determined. Results were confirmed by direct counting of cells under the microscope, using a standard hemocytometer.
Migration assays were performed using 24-well microchemotaxis chambers (Costar) with uncoated polycarbonate membranes (pore size 8 μm). Briefly, cells were harvested and resuspended at 5×10^4 cells/0.15 ml in DMEM containing 0.25% BSA. The bottom chamber of each transwell unit contained 0.6 ml of DMEM supplemented with 0.25% BSA and FGF-2 (20 ng/ml) or carrier as a control. The plates were incubated for 6 h at 37° C. and the filters were fixed with 4% paraformaldehyde in PBS and stained with 0.1% crystal violet solution. The cells that migrated through the filter were counted using a grid and an Optech microscope at 20× magnification.
To assay wound healing, cells were plated on 6-well plates, incubated in DMEM containing 10% FBS until confluence and were serum starved for 16 hours. Wounds were introduced to the confluent cell monolayer with a plastic pipette tip. Wells were washed three times to remove floating cells, and were cultured in DMEM without FBS, in the presence or absence of FGF-2 (20 ng/ml). Twelve and twenty four hours later, the wound area was photographed using a Nikon Phase Contrast-2 ELWD 0.3 Diaphot TMD inverted microscope with a 10× objective and a Spot charge-coupled-device camera (Diagnostic Instruments).

Test [3] relates to TCCSUP, WIDR, SKOV3, T24, NCI522. The test can be described thus: Ndy1 siRNA in cancer cell lines expressing high levels of FGF-2. The test is classed as cell-based, human. Particulars: five of eight high FGF-2 cell lines, 48 hours after transfection. On the procedure: RNAs were transfected with Lipofectamine 2000 (Invitrogen, catalog number 11668-027) in MEFs and DharmaFect 3 (Dharmacon, catalog number T-2003-03) in cancer cell lines, according to the manufacturers' instructions (80 nM final concentration).
These eight high FGF-2 expressing cell lines were then transfected with siRNA for Ndy1 or a control siRNA. Nuclear extracts of these cells, collected 48 hours after the transfection, were probed with antibodies specific for each of Ndy1, Ezh2 and CREB. RNA isolated from these cells was analyzed by real time RT-PCR for abundance of microRNA miR-101. […] The five cell lines were obtained from patients having each of transitional cell carcinoma, lung cancer, colon cancer, ovarian cancer, and bladder cancer.

In test [4] the test system is MEFs. The test can be described thus: Senescence of MEFs after Ndy1 siRNA (cell counting, β-galactosidase staining). The test is classed as cell-based, mouse. On the procedure: (§1) MEFs overexpressing Ndy1 or Ndy2 and MEFs in which Ndy1 was knocked down with siRNA (1433-[…]-1454, SEQ ID NO: 1), were monitored for senescence by light microscopy and β-galactosidase staining and by cell counting at each passage. Transfection of siRNA was carried out using Lipofectamine 2000 (Invitrogen; Carlsbad, Calif.). Knockdown of Ndy1 was confirmed by Western blotting and real time RTPCR.
MEFs transfected with Ndy1 (1433-[…]-1454) or control siRNA (Dharmacon; Chicago, Ill.) were plated in triplicate at 10^5 cells per well in 6 well dishes, and three days later they were counted, re-transfected and replated at 10^5 cells per well. At day 6, cells were photographed, counted and stained for the β-galactosidase (Pierce #9860; Rockford, Ill.). β-galactosidase staining of the cells infected with the retroviral constructs and the siRNA-treated cells was performed using X-gal and a β-galactosidase staining kit (Pierce #9860).
To determine whether endogenous Ndy1 is a physiological regulator of senescence, passage 3 wild type MEFs and passage-8 MEFs overexpressing Ndy1 were transfected with Ndy1 or control siRNA. […] The transfected cells were passaged twice, and cell proliferation was monitored by counting the cells at each passage. Cell morphology and β-galactosidase staining were recorded after the second passage (FIG. 10 panel B, FIG. 10 panel C and FIG. 10 panel D). […]

For another test, the system named is Ndy1. The test can be described thus: siRNA knock down in MEFs (Western blot, real time PCR of p16Ink4a, p19Arf, Ezh2, miR-101). Format: cell-based, mouse. On the procedure:
At a time point four days after transfection cells were analyzed by Western blotting and total mRNA was collected and analyzed by real-time PCR with primers specific for p16^Ink4a and p19^Arf and primers specific for the long and short forms of Ndy1. (n=3)*p<0.05
as §1
For siRNA. MEFs transfected with Ndy1 (1433-[…]-1454; SEQ ID NO: 51) or control siRNA (Dharmacon) were plated at 10^5 cells per 6 cm dish and 3-4 days later were harvested and analyzed (Pfau, R., et al. (2008) Proc Natl Acad Sci USA 105, 1907-12, incorporated herein by reference in its entirety). MEFs were transfected with the help of Lipofectamine 2000 (Invitrogen). To specifically knock down the short form of Ndy1 the following siRNA were used: 5′-[…]-′3 (SEQ ID NO: 52) which specifically targets the exon1 of the v2 isoform of Ndy1 (NM_013910). siRNAs for Ezh2 (a mix of two siRNAs form Applied Biosystems, #AM16708 siID #157427 and #157426) and Bmi-1 (Santa Cruz Biotechnologies, # sc-29815) were used in a final concentration of 80 nM.

Test [5] has as its system Human Umbilical cord Vein Endothelial Cells. The test can be described thus: In vitro tube formation assay. The test is classed as cell-based. Particulars: HUVECs, FGF-2 20 ng/ml, 6 h. On the procedure:
HUVECs were transduced with a myc.Ezh2 expression construct, or with the empty vector (EV) and were subsequently transduced with either shRNA for Ndy1 or with a lentiviral-based control shRNA. (upper-first row) Tube formation on Cultrex-RGF-BME without FGF-2. (upper-second row) Tube formation on Cultrex-RGF-BME in the presence of 20 ng/ml FGF-2. (upper-third row) Tube formation on reduced-growth factor-Matrigel in the presence of 5 μM of the angiogenesis inhibitor sulphoraphane. (lower) Quantitation of tube formation was performed with the Angioquant software. Relative tube formation was calculated as the ratio of total capillary tube length in cells with or without FGF-2 normalized to total capillary tube length of EV cells without FGF-2 and set to 1 for total capillary tube length of EV cells without FGF-2. Data are expressed as mean±SD.
HUVECs were then transduced with a pBabe-based retrovirus construct of myc-Ezh2. Cells transduced with the empty pBabe vector (EV) were used as a negative control. […]
The in vitro tube formation assay was performed using the In Vitro Angiogenesis Assay Kit (Trevigen, catalog number 3470-096-K). […] After 6 h of incubation at 37° C., the medium was removed, the cells were fixed and stained with Calcein AM, and the total length of capillary tubes was measured in the total area of the wells using image analysis software (Angioquant). […]

Where [6] appears, read: MEFs cultured under standard conditions.
[7] abbreviates: MEFs transfected with control siRNA, FGF-2 for 1, 4, 12 or 18 hours.
Where [8] appears, read: serum-starved MEFs, 24 hours after stimulation.
Setting [9] is: serum-starved MEFs transfected with control RNA.

Consider “1433-GUGGACUCACCUUACCGAAUU-1454 [Ndy1 siRNA]”, for which the “serum-stimulated Ezh2 upregulation” value with MEFs [1] (MEFs transfected with siRNA for Ndy1, serum stimulation) is “not affected”. Besides, in the test on MEFs [2] (MEFs overexpressing myc.Ezh2), the FGF-2 driven proliferation result is on record as “no effect”; the “directional and random FGF-2 driven cell motility” value is reported as “remained unaffected”. For the same substance, the “FGF-2-induced Ezh2 upregulation” value in the test with MEFs [2] (MEFs, 48 hour time point under FGF-2) is “sufficient to block”. In addition, in the test with MEFs [2] (serum-starved MEFs stimulated with FGF-2), the “FGF-2 effect on proliferation and migration” value is “greatly limited”. Moreover, in test [3], the Ezh2 entry is recorded as “downregulated” and the “expression of miR-101” value is “upregulating”. In addition, the senescence entry in the test with MEFs [4] is given as “promote senescence”. Moreover, in the test with Ndy1 (setting [6]), the “expression of Ezh2” value was “down-regulates, slightly” and the “expression of miR-101” value is listed as “does not affect”. In the test with Ndy1 (passage 2 MEFs, transient knock down, 4 days), the “p16Ink4a (Western blot)” value is reported as “relatively slight upregulation”. Moreover, the “increase of expression of p16Ink4a” value with Ndy1 (passage 3 MEFs, four days after transfection) is reported as “about 2.3 times”. Besides, the “expression of Ezh2” value with Ndy1 (passage 3 MEFs, four days after transfection (FIG. 17 panel B)) is reported as “decreases”. Further, the “endogenous and exogenous Ndy1 (Western blotting)” value with Ndy1 (passage 3 wild type MEFs and passage-8 MEFs overexpressing Ndy1) was “downregulation”.

Regarding “FGF-2: Fibroblast growth factor-2 (FGF-2) or basic fibroblast growth factor”, in test [5], the “total length of the capillary tubes formed” value is “increase”. Besides, in the test on MEFs [1] (setting [7]), the Ezh2 result was “upregulates”, the Ndy1 entry is listed as “upregulates” and the miR-101 result is given as “down-regulates”. Also, in the test with MEFs [1] (setting [8]), the “expression of Ndy1” value is recorded as “promoted”, the “level at which Ezh2 expression is induced” value was “primarily at the protein level” and the miR-101 result is recorded as “downregulating”. The Ezh2 expression entry in the test with MEFs [1] (serum-starved MEFs, 24 hours after stimulation, 20 ng/ml (serum 10%)) was “significantly upregulated”. In the test on MEFs [2] (setting [9]), the “directional and random migration” value is “increase”; the proliferation rate result is on record as “increase”.
